What was measured:
[1] = system: HCV replicon I389luc-ubi-neo/NS3-3′/ET in ET (Huh-lucubineo-ET) cells; assay: Replicon assay (Biological Example 2), luciferase readout; assay type: cell-based; conditions: Hepatitis C virus
How it was run: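 EC50 values come from Hill fits of % inhibition of replicon-driven firefly luciferase, relative to no-compound wells. Compounds were serially diluted (10 points, 3-fold, 0.1 nM–50 μM final, 0.5% DMSO) onto ET replicon cells and read after 48 h.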

HCV polymerase = target: T1, HCV polymerase (Hepatitis C virus genotype 1b, UniProt Q9WMX2); assay: Polymerase assay of Biological Example 1 (IC50 values of Table 3); assay type: biochemical; conditions: IC50 values of Table 3, polymerase assay of Biological Example 1; read-out: NS5B-enzyme3
T1 construct: (His)6 (C); made in house; host or cells: XL-1 cells (E. coli, by own knowledge)

[2] = ET cells, luciferase activity 48 hours after compound

## O=C(O)c1sc(-c2ccccc2)cc1N1C(=O)CN(S(=O)(=O)c2ccc(N3CCN[C@H](CO)C3)nc2)C[C@H]1C1CCCCC1 [Compound 139, 3-{(R)-2-Cyclohexyl-4-[6-((S)-3-hydroxymethyl-piperazin-1-yl)-pyridine-3-sulfonyl]-6-oxo-piperazin-1-yl}-5-phenyl-thiophene-2-carboxylic acid]
[1]; between 100 nM and 5.0 uM
  IC50: 100 to 5000 nM
HCV polymerase
  IC50: 1 nM

## C[C@@H]1CN(c2ccc(S(=O)(=O)N3CC(=O)N(c4cc(-c5ccccc5)sc4C(=O)O)[C@H](C4CCCCC4)C3)cn2)CCN1 [Compound 140, 3-{(R)-2-Cyclohexyl-4-[6-((R)-3-methyl-piperazin-1-yl)-pyridine-3-sulfonyl]-6-oxo-piperazin-1-yl}-5-phenyl-thiophene-2-carboxylic acid]
[1]; [2]
  IC50: ≤ 100 nM
HCV polymerase
  IC50: 1 nM

## N[C@@H]1CCN(c2ccc(S(=O)(=O)N3CC(=O)N(c4cc(-c5ccccc5)sc4C(=O)O)[C@H](C4CCCCC4)C3)cn2)C1 [Compound 141, 3-{(R)-4-[6-((R)-3-Amino-pyrrolidin-1-yl)-pyridine-3-sulfonyl]-2-cyclohexyl-6-oxo-piperazin-1-yl}-5-phenyl-thiophene-2-carboxylic acid]
[1]; [2]
  IC50: ≤ 100 nM
HCV polymerase
  IC50: 2 nM

## N[C@H]1CCCN(c2ccc(S(=O)(=O)N3CC(=O)N(c4cc(-c5ccccc5)sc4C(=O)O)[C@H](C4CCCCC4)C3)cn2)C1 [Compound 142, 3-[(R)-4-((S)-3-Amino-3,4,5,6-tetrahydro-2H-[1,2′]bipyridinyl-5′-sulfonyl)-2-cyclohexyl-6-oxo-piperazin-1-yl]-5-phenyl-thiophene-2-carboxylic acid]
[1]; between 100 nM and 5.0 uM
  IC50: 100 to 5000 nM
HCV polymerase
  IC50: 2 nM

## NCC1CCN(c2ccc(S(=O)(=O)N3CC(=O)N(c4cc(-c5ccccc5)sc4C(=O)O)[C@H](C4CCCCC4)C3)cn2)CC1 [Compound 143, 3-[(R)-4-(4-Aminomethyl-3,4,5,6-tetrahydro-2H-[1,2′]bipyridinyl-5′-sulfonyl)-2-cyclohexyl-6-oxo-piperazin-1-yl]-5-phenyl-thiophene-2-carboxylic acid]
[1]; [2]
  IC50: ≤ 100 nM
HCV polymerase
  IC50: 1.9 nM

## N[C@H]1CCN(c2ccc(S(=O)(=O)N3CC(=O)N(c4cc(-c5ccccc5)sc4C(=O)O)[C@H](C4CCCCC4)C3)cn2)C1 [Compound 144, 3-{(R)-4-[6-((S)-3-Amino-pyrrolidin-1-yl)-pyridine-3-sulfonyl]-2-cyclohexyl-6-oxo-piperazin-1-yl}-5-phenyl-thiophene-2-carboxylic acid]
[1]; between 100 nM and 5.0 uM
  IC50: 100 to 5000 nM
HCV polymerase
  IC50: 2 nM

## C[C@H]1CN(c2ccc(S(=O)(=O)N3CC(=O)N(c4cc(-c5ccccc5)sc4C(=O)O)[C@H](C4CCCCC4)C3)cn2)CCN1 [Compound 145, 3-{(R)-2-Cyclohexyl-4-[6-((S)-3-methyl-piperazin-1-yl)-pyridine-3-sulfonyl]-6-oxo-piperazin-1-yl}-5-phenyl-thiophene-2-carboxylic acid]
[1]; [2]
  IC50: ≤ 100 nM
HCV polymerase
  IC50: 1 nM

## CC(C)(C)OC(=O)N[C@@H]1CCN(c2ccc(S(=O)(=O)N3CC(=O)N(c4cc(-c5ccccc5)sc4C(=O)O)[C@H](C4CCCCC4)C3)cn2)C1 [Compound 146, 3-{(R)-4-[6-((R)-3-tert-Butoxycarbonyl-amino-pyrrolidin-1-yl)-pyridine-3-sulfonyl]-2-cyclohexyl-6-oxo-piperazin-1-yl}-5-phenyl-thiophene-2-carboxylic acid]
[1]; [2]
  IC50: ≤ 100 nM
HCV polymerase
  IC50: 2 nM

## CN(C)C1CCN(c2ccc(S(=O)(=O)N3CC(=O)N(c4cc(-c5ccccc5)sc4C(=O)O)[C@H](C4CCCCC4)C3)cn2)CC1 [Compound 147, 3-[(R)-2-Cyclohexyl-4-(4-dimethylamino-3,4,5,6-tetrahydro-2H-[1,2′]bipyridinyl-5′-sulfonyl)-6-oxo-piperazin-1-yl]-5-phenyl-thiophene-2-carboxylic acid]
[1]; [2]
  IC50: ≤ 100 nM
HCV polymerase
  IC50: 1 nM

## CCN1CCN(c2ccc(S(=O)(=O)N3CC(=O)N(c4cc(-c5ccccc5)sc4C(=O)O)[C@H](C4CCCCC4)C3)cn2)CC1 [Compound 148, 3-{(R)-2-Cyclohexyl-4-[6-(4-ethyl-piperazin-1-yl)-pyridine-3-sulfonyl]-6-oxo-piperazin-1-yl}-5-phenyl-thiophene-2-carboxylic acid]
[1]; [2]
  IC50: ≤ 100 nM
HCV polymerase
  IC50: 2 nM

## CC(C)(C)OC(=O)NCC1CCN(c2ccc(S(=O)(=O)N3CC(=O)N(c4cc(-c5ccccc5)sc4C(=O)O)[C@H](C4CCCCC4)C3)cn2)CC1 [Compound 149, 3-{(R)-4-[4-(tert-Butoxycarbonyl-amino-methyl)-3,4,5,6-tetrahydro-2H-[1,2′]bipyridinyl-5′-sulfonyl]-2-cyclohexyl-6-oxo-piperazin-1-yl}-5-phenyl-thiophene-2-carboxylic acid]
[1]; [2]
  IC50: ≤ 100 nM
HCV polymerase
  IC50: 3 nM

## C[C@@H]1CN(c2ccc(S(=O)(=O)N3CC(=O)N(c4cc(-c5ccccc5)sc4C(=O)O)[C@H](C4CCCCC4)C3)cn2)C[C@H](C)N1 [Compound 150, 3-{(R)-2-Cyclohexyl-4-[6-((3R,5S)-3,5-dimethyl-piperazin-1-yl)-pyridine-3-sulfonyl]-6-oxo-piperazin-1-yl}-5-phenyl-thiophene-2-carboxylic acid]
[1]; [2]
  IC50: ≤ 100 nM
HCV polymerase
  IC50: 4 nM

## C[C@@H]1CN(c2ccc(S(=O)(=O)N3CC(=O)N(c4cc(-c5ccccc5)sc4C(=O)O)[C@H](C4CCCCC4)C3)cn2)CCN1C(=O)OC(C)(C)C [Compound 151, (R)-4-{5-[(R)-4-(2-Carboxy-5-phenyl-thiophen-3-yl)-3-cyclohexyl-5-oxo-piperazine-1-sulfonyl]-pyridin-2-yl}-2-methyl-piperazine-1-carboxylic acid tert-butyl ester]
[1]; [2]
  IC50: ≤ 100 nM
HCV polymerase
  IC50: 3 nM

## CC(C)(C)N1CCN(c2ccc(S(=O)(=O)N3CC(=O)N(c4cc(-c5ccccc5)sc4C(=O)O)[C@H](C4CCCCC4)C3)cn2)CC1 [Compound 152, 3-{(R)-4-[6-(4-tert-Butyl-piperazin-1-yl)-pyridine-3-sulfonyl]-2-cyclohexyl-6-oxo-piperazin-1-yl}-5-phenyl-thiophene-2-carboxylic acid]
[1]; [2]
  IC50: ≤ 100 nM
HCV polymerase
  IC50: 3 nM

## CC1(NC(=O)OC(C)(C)C)CCN(c2ccc(S(=O)(=O)N3CC(=O)N(c4cc(-c5ccccc5)sc4C(=O)O)[C@H](C4CCCCC4)C3)cn2)CC1 [Compound 153, 3-[(R)-4-(4-tert-Butoxycarbonylamino-4-methyl-3,4,5,6-tetrahydro-2H-[1,2′]bipyridinyl-5′-sulfonyl)-2-cyclohexyl-6-oxo-piperazin-1-yl]-5-phenyl-thiophene-2-carboxylic acid]
[1]; between 100 nM and 5.0 uM
  IC50: 100 to 5000 nM
HCV polymerase
  IC50: 4 nM

## CCC1CCCN1c1ccc(S(=O)(=O)N2CC(=O)N(c3cc(-c4ccccc4)sc3C(=O)O)[C@H](C3CCCCC3)C2)cn1 (stereo partly drawn) [Compound 154, 3-{(R)-2-Cyclohexyl-4-[6-(2-ethyl-pyrrolidin-1-yl)-pyridine-3-sulfonyl]-6-oxo-piperazin-1-yl}-5-phenyl-thiophene-2-carboxylic acid]
[1]; [2]
  IC50: ≤ 100 nM
HCV polymerase
  IC50: 3 nM

## CN(C)C1CCCN(c2ccc(S(=O)(=O)N3CC(=O)N(c4cc(-c5ccccc5)sc4C(=O)O)[C@H](C4CCCCC4)C3)cn2)C1 (stereo partly drawn) [Compound 155, 3-[(R)-2-Cyclohexyl-4-(3-dimethylamino-3,4,5,6-tetrahydro-2H-[1,2′]bipyridinyl-5′-sulfonyl)-6-oxo-piperazin-1-yl]-5-phenyl-thiophene-2-carboxylic acid]
[1]; [2]
  IC50: ≤ 100 nM
HCV polymerase
  IC50: 3 nM

## CN(C)[C@H]1CCN(c2ccc(S(=O)(=O)N3CC(=O)N(c4cc(-c5ccccc5)sc4C(=O)O)[C@H](C4CCCCC4)C3)cn2)C1 [Compound 156, 3-{(R)-2-Cyclohexyl-4-[6-((S)-3-dimethylamino-pyrrolidin-1-yl)-pyridine-3-sulfonyl]-6-oxo-piperazin-1-yl}-5-phenyl-thiophene-2-carboxylic acid]
[1]; [2]
  IC50: ≤ 100 nM
HCV polymerase
  IC50: 1 nM

## O=C(O)c1sc(-c2ccccc2)cc1N1C(=O)CN(S(=O)(=O)c2ccc(N3CCN4CCCC4C3)nc2)C[C@H]1C1CCCCC1 (stereo partly drawn) [Compound 157, 3-{(R)-2-Cyclohexyl-4-[6-(hexahydro-pyrrolo[1,2-a]pyrazin-2-yl)-pyridine-3-sulfonyl]-6-oxo-piperazin-1-yl}-5-phenyl-thiophene-2-carboxylic acid]
[1]; [2]
  IC50: ≤ 100 nM
HCV polymerase
  IC50: 1 nM

## CC(C)(C)OC(=O)N[C@H]1CCCN(c2ccc(S(=O)(=O)N3CC(=O)N(c4cc(-c5ccccc5)sc4C(=O)O)[C@H](C4CCCCC4)C3)cn2)C1 [Compound 158, 3-[(R)-4-((S)-3-tert-Butoxycarbonylamino-3,4,5,6-tetrahydro-2H-[1,2′]bipyridinyl-5′-sulfonyl)-2-cyclohexyl-6-oxo-piperazin-1-yl]-5-phenyl-thiophene-2-carboxylic acid]
[1]; [2]
  IC50: ≤ 100 nM
HCV polymerase
  IC50: 2 nM

## CC(C)(C)OC(=O)N[C@H]1CCCN(c2ccc(S(=O)(=O)N3CC(=O)N(c4cc(-c5ccccc5)sc4C(=O)O)[C@H](C4CCCCC4)C3)cn2)C1 [Compound 159, 3-[(R)-4-((S)-3-tert-Butoxycarbonyl-amino-3,4,5,6-tetrahydro-2H-[1,2′]bipyridinyl-5′-sulfonyl)-2-cyclohexyl-6-oxo-piperazin-1-yl]-5-phenyl-thiophene-2-carboxylic acid]
[1]; between 100 nM and 5.0 uM
  IC50: 100 to 5000 nM
HCV polymerase
  IC50: 3 nM

## CC(C)N1CCN(c2ccc(S(=O)(=O)N3CC(=O)N(c4cc(-c5ccccc5)sc4C(=O)O)[C@H](C4CCCCC4)C3)cn2)CC1 [Compound 160, 3-{(R)-2-Cyclohexyl-4-[6-(4-isopropyl-piperazin-1-yl)-pyridine-3-sulfonyl]-6-oxo-piperazin-1-yl}-5-phenyl-thiophene-2-carboxylic acid]
[1]; [2]
  IC50: ≤ 100 nM
HCV polymerase
  IC50: 1 nM

From US9498483B2, “2,3,5-trisubstituted thiophene compounds and uses thereof” (priority 2010, dated 2016)
